Measured values taken from patent US8044052B2, “Biaryl ether urea compounds” (Pfizer Inc., priority 2006, dated 2011).

Target: T1, Human FAAH (Homo sapiens, UniProt O00519)
T1 construct: made in house
T1 sequence (O00519 1-579): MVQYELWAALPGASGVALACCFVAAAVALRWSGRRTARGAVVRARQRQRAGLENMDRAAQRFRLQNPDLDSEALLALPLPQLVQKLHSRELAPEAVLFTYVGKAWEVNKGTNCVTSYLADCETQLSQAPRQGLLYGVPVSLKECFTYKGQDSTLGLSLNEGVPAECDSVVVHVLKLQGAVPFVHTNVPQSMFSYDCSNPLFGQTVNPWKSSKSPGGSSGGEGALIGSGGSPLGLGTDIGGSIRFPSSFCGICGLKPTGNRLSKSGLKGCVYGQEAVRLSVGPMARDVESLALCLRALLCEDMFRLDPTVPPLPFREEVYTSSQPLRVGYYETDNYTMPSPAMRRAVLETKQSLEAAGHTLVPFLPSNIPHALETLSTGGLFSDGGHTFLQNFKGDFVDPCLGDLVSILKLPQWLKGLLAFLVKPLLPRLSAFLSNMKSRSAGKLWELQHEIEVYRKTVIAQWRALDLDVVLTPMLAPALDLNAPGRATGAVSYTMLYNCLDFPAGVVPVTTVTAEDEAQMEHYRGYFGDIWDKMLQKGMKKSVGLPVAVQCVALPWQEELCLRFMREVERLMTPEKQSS
Test: FAAH assay (glutamate dehydrogenase-coupled, oleamide substrate, absorbance at 340 nm)
Type: biochemical
Settings: irreversible inhibition, 1-4 nM FAAH, pH 7.4, 30° C., 90 min
Protocol: The FAAH assay was carried out in 384-well clear polystyrene plates in a total volume of 50 μl per well. All percents are by volume. To each well, was placed the reaction mixture (40 μl) containing 1-4 nM FAAH, 50 mM NaPi, pH 7.4, 3 mM α-ketoglutarate, 0.15 mM NADH, 7.5 U/ml glutamate dehydrogenase, 2 mM ADP, 1 mM EDTA, and 0.1% Triton X-100 (The concentration shown for each component is the final concentration in the assay). […] This was immediately followed by the addition of 5 μl oleamide (500 μM) dissolved in 75% EtOH/25% DMSO and the reaction mixture was mixed for 1.5 min. The final concentrations of DMSO and EtOH in the assay were each 7.5%.
Initial velocity data (V) were obtained from the slopes of the initial progressive curves. They were plotted as a function of substrate concentration and fit to the Michaelis-Menten equation (1) using Prism (GraphPad Software, Inc., San Diego, Calif.) software to obtain Km and Vmax values.
To obtain potencies of irreversible inhibitors, progressive curves consistent with first order inhibition kinetics (two-step irreversible inhibition mechanism) were fit to equation (2) by nonlinear least squares regressions to determine kobs values at each inhibitor concentration, where [P]t is the absorbance at time t, V0 is a constant related to the steady state rate of the uninhibited reaction, and kobs is the first order rate constant for enzyme inactivation. The inhibitor dissociation constant (Ki) and the first order rate
[formula] constant of enzyme inactivation at infinite inhibitor concentration (kinact) were then obtained by fitting the kobs vs. [I] curves to equation (3).

SMILES	hFAAH kinact/Ki [M⁻¹ s⁻¹]
O=C(Nc1cccnc1)N1CCC(=Cc2cccc(Oc3ccc(C(F)(F)F)cc3)c2)CC1 [Example 53]	4520

Same assay, conditions: irreversible inhibition, 1-4 nM FAAH, pH 7.4, 30° C., 90 min, read-out: hFAAH kinact/Ki

kinact/KI [M⁻¹ s⁻¹]	SMILES
6190	O=C(Nc1ccc(Br)nc1)N1CCC(=Cc2cccc(Oc3ccc(C(F)(F)F)cn3)c2)CC1 [Example 28, 4-(3-(5-(trifluoromethyl)pyridin-2-yloxy)benzylidene)-N-(6-bromopyridin-3-yl)piperidine-1-carboxamide]
3370	O=C(Nc1ccccc1F)N1CCC(=Cc2cccc(Oc3ccc(C(F)(F)F)cn3)c2)CC1 [Example 29, 4-(3-(5-(trifluoromethyl)pyridin-2-yloxy)benzylidene)-N-(2-fluorophenyl)piperidine-1-carboxamide]
3540	N#Cc1ccc(Oc2cccc(C=C3CCN(C(=O)Nc4cccnc4)CC3)c2)nc1 [Example 30, 4-(3-(5-cyanopyridin-2-yloxy)benzylidene)-N-(pyridin-3-yl)piperidine-1-carboxamide]
26300	O=C(Nc1cccnc1)N1CCC(=Cc2cccc(Oc3ccc(Br)cn3)c2)CC1 [Example 33, 4-{3-[(5-bromopyridin-2-yl)oxy]benzylidene}-N-pyridin-3-ylpiperidine-1-carboxamide]
50900	O=C(Nc1cccnn1)N1CCC(=Cc2cccc(Oc3ccc(Br)cn3)c2)CC1 [Example 34, 4-(3-(5-bromopyridin-2-yloxy)benzylidene)-N-(pyridazin-3-yl)piperidine-1-carboxamide]
3670	Cc1noc(NC(=O)N2CCC(=Cc3cccc(Oc4ccc(Br)cn4)c3)CC2)c1C [Example 35, 4-(3-(5-bromopyridin-2-yloxy)benzylidene)-N-(3,4-dimethylisoxazol-5-yl)piperidine-1-carboxamide]
5070	O=C(Nc1cccnc1)N1CCC(=Cc2cccc(Oc3ncc(Br)cn3)c2)CC1 [Example 36, 4-(3-(5-bromopyrimidin-2-yloxy)benzylidene)-N-(pyridin-3-yl)piperidine-1-carboxamide]
15100	O=C(Nc1cccnn1)N1CCC(=Cc2cccc(Oc3ncc(Br)cn3)c2)CC1 [Example 37, 4-(3-(5-bromopyrimidin-2-yloxy)benzylidene)-N-(pyridazin-3-yl)piperidine-1-carboxamide]
9180	O=C(Nc1cccnc1)N1CCC(=Cc2cccc(Oc3ccc(C4CC4)cn3)c2)CC1 [Example 38, 4-(3-(5-cyclopropylpyridin-2-yloxy)benzylidene)-N-(pyridin-3-yl)piperidine-1-carboxamide]
18200	O=C(Nc1cccnn1)N1CCC(=Cc2cccc(Oc3ccc(C4CC4)cn3)c2)CC1 [Example 39, 4-(3-(5-cyclopropylpyridin-2-yloxy)benzylidene)-N-(pyridazin-3-yl)piperidine-1-carboxamide]
554	Cc1cccc(Oc2cccc(C=C3CCN(C(=O)Nc4cccnc4)CC3)c2)n1 [Example 40, 4-(3-(6-methylpyridin-2-yloxy)benzylidene)-N-(pyridin-3-yl)piperidine-1-carboxamide]
687	Cc1cccc(Oc2cccc(C=C3CCN(C(=O)Nc4cccnn4)CC3)c2)n1 [Example 41, 4-(3-(6-methylpyridin-2-yloxy)benzylidene)-N-(pyridazin-3-yl)piperidine-1-carboxamide]
834	Cc1cccnc1Oc1cccc(C=C2CCN(C(=O)Nc3cccnc3)CC2)c1 [Example 42, 4-(3-(3-methylpyridin-2-yloxy)benzylidene)-N-(pyridin-3-yl)piperidine-1-carboxamide]
1410	Cc1cccnc1Oc1cccc(C=C2CCN(C(=O)Nc3cccnn3)CC2)c1 [Example 43, 4-(3-(3-methylpyridin-2-yloxy)benzylidene)-N-(pyridazin-3-yl)piperidine-1-carboxamide]
12800	Cc1ccc(Oc2cccc(C=C3CCN(C(=O)Nc4cccnn4)CC3)c2)nc1 [Example 45, 4-(3-(5-methylpyridin-2-yloxy)benzylidene)-N-(pyridazin-3-yl)piperidine-1-carboxamide]
3700	Cc1ccc(Oc2cccc(C=C3CCN(C(=O)Nc4onc(C)c4C)CC3)c2)nc1 [Example 46, 4-(3-(5-methylpyridin-2-yloxy)benzylidene)-N-(3,4-dimethylisoxazol-5-yl)piperidine-1-carboxamide]
4490	CCOc1ccc(Oc2cccc(C=C3CCN(C(=O)Nc4cccnc4)CC3)c2)nc1 [Example 47, 4-(3-(5-ethoxypyridin-2-yloxy)benzylidene)-N-(pyridin-3-yl)piperidine-1-carboxamide]
5830	CCOc1ccc(Oc2cccc(C=C3CCN(C(=O)Nc4cccnn4)CC3)c2)nc1 [Example 48, 4-(3-(5-ethoxypyridin-2-yloxy)benzylidene)-N-(pyridazin-3-yl)piperidine-1-carboxamide]
6560	O=C(Nc1cccnc1)N1CCC(=Cc2cccc(Oc3ccc(OCC(F)(F)F)cn3)c2)CC1 [Example 49, 4-(3-(5-(2,2,2-trifluoroethoxy)pyridin-2-yloxy)benzylidene)-N-(pyridin-3-yl)piperidine-1-carboxamide]
5670	O=C(Nc1cccnn1)N1CCC(=Cc2cccc(Oc3ccc(OCC(F)(F)F)cn3)c2)CC1 [Example 50, 4-(3-(5-(2,2,2-trifluoroethoxy)pyridin-2-yloxy)benzylidene)-N-(pyridazin-3-yl)piperidine-1-carboxamide]
4330	CC(C)Oc1ccc(Oc2cccc(C=C3CCN(C(=O)Nc4cccnc4)CC3)c2)nc1 [Example 51, 4-(3-(5-isopropoxypyridin-2-yloxy)benzylidene)-N-(pyridin-3-yl)piperidine-1-carboxamide]
4090	CC(C)Oc1ccc(Oc2cccc(C=C3CCN(C(=O)Nc4cccnn4)CC3)c2)nc1 [Example 52, 4-(3-(5-isopropoxypyridin-2-yloxy)benzylidene)-N-(pyridazin-3-yl)piperidine-1-carboxamide]
12000	O=C(Nc1cccnn1)N1CCC(=Cc2cccc(Oc3ccc(C(F)(F)F)cc3)c2)CC1 [Example 54, 4-(3-(4-(trifluoromethyl)phenoxy)benzylidene)-N-(pyridazin-3-yl)piperidine-1-carboxamide]
1610	Cc1noc(NC(=O)N2CCC(=Cc3cccc(Oc4ccc(C(F)(F)F)cc4)c3)CC2)c1C [Example 55, 4-(3-(4-(trifluoromethyl)phenoxy)benzylidene)-N-(3,4-dimethylisoxazol-5-yl)piperidine-1-carboxamide]
3580	Cc1ccc(NC(=O)N2CCC(=Cc3cccc(Oc4ccc(C(F)(F)F)cc4)c3)CC2)cn1 [Example 56, 4-(3-(4-(trifluoromethyl)phenoxy)benzylidene)-N-(6-methylpyridin-3-yl)piperidine-1-carboxamide]
16800	O=C(Nc1cccnn1)N1CCC(=Cc2cccc(Oc3ccc(C(F)(F)F)nc3)c2)CC1 [Example 57, 4-(3-(6-(trifluoromethyl)pyridin-3-yloxy)benzylidene)-N-(pyridazin-3-yl)piperidine-1-carboxamide]
322	CCOc1cc(C=C2CCN(C(=O)Nc3cccnc3)CC2)cc(Oc2ccc(C(F)(F)F)cn2)c1 [Example 58, 4-(3-ethoxy-5-(5-(trifluoromethyl)pyridin-2-yloxy)benzylidene)-N-(pyridin-3-yl)piperidine-1-carboxamide]
260	O=C(Nc1cccnc1)N1CCC(=Cc2ccc(Cl)c(Oc3ccc(C(F)(F)F)cn3)c2)CC1 [Example 59, 4-(4-chloro-3-(5-(trifluoromethyl)pyridin-2-yloxy)benzylidene)-N-(pyridin-3-yl)piperidine 1-carboxamide]
1580	Cc1ccc(C=C2CCN(C(=O)Nc3cccnc3)CC2)cc1Oc1ccc(C(F)(F)F)cn1 [Example 60, 4-(4-methyl-3-(5-(trifluoromethyl)pyridin-2-yloxy)benzylidene)-N-(pyridin-3-yl)piperidine-1-carboxamide]
2130	Cc1cc(C=C2CCN(C(=O)Nc3cccnc3)CC2)cc(Oc2ccc(C(F)(F)F)cn2)c1 [Example 61, 4-(3-methyl-5-(5-(trifluoromethyl)pyridin-2-yloxy)benzylidene)-N-(pyridin-3-yl)piperidine-1-carboxamide]
